One assay deals with T1, HMG-CoA Reductase (Rattus norvegicus, UniProt P51639).
T1 construct: the microsomal fraction is isolated by differential ultra centrifugation to obtain the HMG-CoA reductase enzyme; from tissue; host or cells: rat liver, microsomal fraction (cholestyramine-fed rats)
T1 sequence (P51639 1-887): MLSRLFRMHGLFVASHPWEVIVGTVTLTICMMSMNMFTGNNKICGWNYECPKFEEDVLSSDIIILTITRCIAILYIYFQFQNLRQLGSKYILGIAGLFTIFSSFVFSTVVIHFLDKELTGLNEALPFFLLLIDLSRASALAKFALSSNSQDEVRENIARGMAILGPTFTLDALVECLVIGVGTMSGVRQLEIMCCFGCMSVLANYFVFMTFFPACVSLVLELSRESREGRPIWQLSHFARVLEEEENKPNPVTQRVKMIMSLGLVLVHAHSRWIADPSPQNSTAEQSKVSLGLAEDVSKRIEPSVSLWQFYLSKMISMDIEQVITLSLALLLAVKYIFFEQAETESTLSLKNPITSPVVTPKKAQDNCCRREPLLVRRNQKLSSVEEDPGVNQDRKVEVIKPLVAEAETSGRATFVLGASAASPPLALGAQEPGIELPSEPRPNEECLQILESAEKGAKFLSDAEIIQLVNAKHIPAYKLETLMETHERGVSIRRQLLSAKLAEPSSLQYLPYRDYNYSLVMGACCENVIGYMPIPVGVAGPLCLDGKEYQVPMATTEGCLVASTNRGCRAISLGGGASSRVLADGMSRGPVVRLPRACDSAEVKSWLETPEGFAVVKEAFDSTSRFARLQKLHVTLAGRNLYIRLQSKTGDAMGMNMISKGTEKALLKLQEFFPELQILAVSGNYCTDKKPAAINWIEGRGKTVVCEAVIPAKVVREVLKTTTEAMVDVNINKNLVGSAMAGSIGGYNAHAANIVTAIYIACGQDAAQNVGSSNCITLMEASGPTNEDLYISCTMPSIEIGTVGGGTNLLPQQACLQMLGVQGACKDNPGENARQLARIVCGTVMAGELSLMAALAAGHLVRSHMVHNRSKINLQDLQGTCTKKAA
The experiment in a line: Inhibition of HMG-CoA reductase (rat liver microsomal fraction, [14C] HMG-CoA). It is filed as biochemical. The conditions noted are these: rat liver microsomal enzyme, pH 7.5, 37° C., 20 min. An excerpt: The HMG-CoA reductase inhibitory properties of representative compounds of this invention were established by subjecting the compounds to the following standard experimental test procedure adapted from Rodwell et al., Adv. Lipid Res. 14 1, 1976; Endo et al., FEBS Letters 72 323, 1976; and Tanzawa et al., Biochemia et Biophysica Acta 488 97, 1977.
Rat livers obtained from rats fed on a diet containing 3% cholestyramine and maintained on a reverse lighting regimen for three weeks are homogenized and the microsomal fraction is isolated by differential ultra centrifugation to obtain the HMG-CoA reductase enzyme. To a preincubated (five minutes at 37° C.) solution of the compound being tested (as either the lactone and/or dihydroxy sodium carboxylate in amounts from 10^-3 to 10^-6 M) in TEDKS100 pH (Tris® 40 mM; EDTA 1 mM; dithiothreitol 5 mM; KCl 70 mM; sucrose 100 mM) 7.5 buffer or DMSO dissolved in an assay medium containing 20 μl of 2.5M KCl; 20 μl NADPH (reduced nicotinamide adenine dinucleotide phosphate) (7.5 mM); and 40 μl of labeled (RS) HMG-CoA (3-^14 C; […]; 200 μM) is added 10 μl of preincubated (five minutes at 37° C.) microsomal fraction (produced above) to obtain a total volume of 125 μl. After a twenty minute incubation period at 37° C., reaction of the enzyme is terminated by addition of 10 μl of 70% of HClO4. The assay tubes are then centrifuged for two minutes in a Beckman microfuge II.
To 100 μl of the supernatant liquid is added 10 μl of non-radioactivemevalonic acid lactone (0.25M in 8 mM H2 SO4). An aliquot of the sample is eluted with 8 mM H2 SO4 through Bio Rad Aminex HPX-87H (HPLC; Hewlett-Packard Model 1084B) at a flow rate of 1 mL/minute. The effluent is fractionated, Hydrofluor® is added and radioactivity of the [^14 C] mevalonolactone produced by reduction of [^14 C] HMG-CoA determined with a scintillation counter.
The percent inhibition of HMG-CoA reductase activity is obtained by comparison with a control assay devoid of the test compound. The inhibitory concentration (IC50) is calculated for the various test compounds.
Background: Microsomes from liver hold many membrane-bound enzymes, among them those of drug oxidation.

Assay [1] deals with biosynthesis of cholesterol. The conditions noted are these: background; cited from earlier work.
Setting [2] is: Dihydroxycarboxylate form (dihydroxy sodium carboxylate), read-out: Inhibition of HMG-CoA Reductase (IC50, M), Dihydroxycarboxylate.
Setting [3] is: Lactone form, read-out: Inhibition of HMG-CoA Reductase (IC50, M), Lactone.

Read-outs that look alike come from different tables or passages of the source.

Take `CCC(C)(C)C(=O)OC(c1ccccc1)c1cc(C)cc(C)c1/C=C/[C@@H]1C[C@@H](O)CC(=O)O1` (relative stereo) [Example 3, 2,2-Dimethylbutanoic acid[4α,6β,(E)]-[[3,5-dimethyl-[2-[2-tetrahydro-4-hydroxy-6-oxo-2H-pyran-2-yl]ethenyl]phenyl]phenylmethyl]ester]: the IC50 stood at 6.2e-06 M on HMG-CoA Reductase (setting [2]) and 0.0017 M on HMG-CoA Reductase (setting [3]).
For the compound `CC[C@H](C)C(=O)O[C@H]1C[C@@H](C)C=C2C=C[C@H](C)[C@H](CC[C@@H]3C[C@@H](O)CC(=O)O3)[C@H]21` [Mevinolin, reference compound], the figures for the concentration for half-maximal inhibition (IC50) at HMG-CoA Reductase (setting [2]) and on HMG-CoA Reductase (setting [3]) were 5e-09 M and 6e-07 M, respectively. The “inhibition of cholesterol biosynthesis, in words” value in assay [1] is “more effectively”.
On to `CCC(C)(C)C(=O)OCc1cc(C)cc(C)c1/C=C/[C@@H]1C[C@@H](O)CC(=O)O1` (relative stereo) [Example 4], for which the half-inhibitory concentration (IC50) on HMG-CoA Reductase (setting [2]) came out at 4e-05 M; at HMG-CoA Reductase (setting [3]), 5.7e-05 M.
Take `CCCCCCCCCC(OC(=O)C(C)(C)CC)c1cc(C)cc(C)c1/C=C/[C@@H]1C[C@@H](O)CC(=O)O1` (relative stereo) [Example 2, 2,2-Dimethylbutanoic acid[4α,6β(E)]-1-[2-[2-(tetrahydro-4-hydroxy-6-oxo-2H-pyran-2-yl)ethenyl]-3,5-dimethylphenyl]decyl ester]: the IC50 at HMG-CoA Reductase (setting [2]) was more than 0.0001 M; on HMG-CoA Reductase (setting [3]), more than 0.001 M.
On to `CC[C@H](C)C(=O)O[C@H]1CCC=C2C=C[C@H](C)[C@H](CC[C@@H]3C[C@@H](O)CC(=O)O3)[C@H]21` [compactin], for which the “inhibition of cholesterol biosynthesis, in words” value in assay [1] was “could be inhibited”.
Turning to `CCCC(OC(=O)C(C)(C)CC)c1cc(C)cc(C)c1/C=C/[C@@H]1C[C@@H](O)CC(=O)O1` (relative stereo) [Example 1], the IC50 amounted to 1.7e-06 M on HMG-CoA Reductase (setting [2]) and 2.7e-06 M on HMG-CoA Reductase (setting [3]).

The term IC50 denotes the point on the concentration scale where inhibition reaches its midpoint.
